Measurements as given in patent publication US12336982B2 (RODEO THERAPEUTICS CORPORATION, priority 2018, dated 2025).

Molecular target: T1, recombinant 15-PGDH (Homo sapiens, UniProt P15428)
T1 sequence (P15428 1-266): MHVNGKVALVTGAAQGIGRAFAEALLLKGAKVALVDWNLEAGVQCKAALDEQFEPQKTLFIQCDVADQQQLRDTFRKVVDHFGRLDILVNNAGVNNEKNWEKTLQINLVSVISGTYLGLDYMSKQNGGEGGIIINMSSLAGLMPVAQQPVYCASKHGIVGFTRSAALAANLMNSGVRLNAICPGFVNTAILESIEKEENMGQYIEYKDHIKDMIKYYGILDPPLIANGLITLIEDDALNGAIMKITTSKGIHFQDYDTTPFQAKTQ
Assay type: biochemical
Settings: recombinant human 15-PGDH, in vitro; read-out: PDGH Assay-IC50
Text: The Recombinant 15-PGDH is human unless otherwise specified.

| SMILES | IC50 [nM] |
| --- | --- |
| Cn1cc(-c2cc(-c3ccc(OCCO)cc3)nc3sc([S+]([O-])C4CCC4)c(N)c23)cn1 (stereo not drawn) [Example 413] | < 2.5 |
| COCC[S+]([O-])c1sc2nc(-c3cnc4c(c3)CN(C)C4=O)cc(C3CCC3)c2c1N (stereo not drawn) [Example 385] | < 2.5 |
| Nc1c([S+]([O-])C2CCC2)sc2nc(-c3cncnc3)cc(-c3cnccn3)c12 (stereo not drawn) [Example 289] | < 2.5 |
| COCCC[S+]([O-])c1sc2nc(-c3cnn(CCO)c3)cc(-c3ccccc3)c2c1N (stereo not drawn) [Example 273] | < 2.5 |
| Cn1cncc(-c2cc(C3CCC3)c3c(N)c([S+]([O-])C4CCC4)sc3n2)c1=O (stereo not drawn) [Example 409] | < 2.5 |
| Cn1ccc(-c2cc(-c3cncnc3)nc3sc([S+]([O-])C4CCC4)c(N)c23)n1 (stereo not drawn) [Example 280] | < 2.5 |
| COCC[S+]([O-])c1sc2nc(-c3cnc4nn(C)nc4c3)cc(C3CCC3)c2c1N (stereo not drawn) [Example 377] | < 2.5 |
| Nc1c([S@+]([O-])C2CCC2)sc2nc(-c3cnc(NCCO)nc3)cc(-c3cccnc3)c12 (stereo in doubt) [Example 103] | < 2.5 |
| COCC[S+]([O-])c1sc2nc(-c3cnn(CCO)c3)cc(-c3ccccc3)c2c1N (stereo not drawn) [Example 271] | < 2.5 |
| Nc1c([S@+]([O-])C2CCC2)sc2nc(-c3ccc(NCCO)nc3)cc(-c3ccccn3)c12 [Example 97] | < 2.5 |
| COCCC[S+]([O-])c1sc2nc(-c3cnc4c(c3)CNC4=O)cc(-c3ccccc3)c2c1N (stereo not drawn) [Example 303] | < 2.5 |
| Nc1c([S+]([O-])C2CCC2)sc2nc(-c3cccnc3)cc(C3CCOCC3)c12 (stereo not drawn) [Example 43] | < 2.5 |
| Cn1cncc(-c2cc(-c3ccccc3)c3c(N)c([S+]([O-])C4CCC4)sc3n2)c1=O (stereo not drawn) [Example 410] | 2.5 to 10 |
| COCC[S+]([O-])c1sc2nc(-c3cnc4c(c3)nnn4C)cc(C3CC3)c2c1N (stereo not drawn) [Example 244] | < 2.5 |
| Nc1c([S+]([O-])C2CCC2)sc2nc(-c3cnc(C(=O)NCCO)nc3)cc(-c3ccccc3)c12 (stereo not drawn) [Example 129] | < 2.5 |
| Cn1ccc(-c2cc(-c3ccnnc3)nc3sc([S+]([O-])C4CCC4)c(N)c23)n1 (stereo not drawn) [Example 213] | < 2.5 |
| Nc1c([S+]([O-])C2CCC2)sc2nc(-c3cncnc3)cc(-c3ncccn3)c12 (stereo not drawn) [Example 98] | < 2.5 |

| SMILES | IC50 [nM] |
| --- | --- |
| Nc1c([S+]([O-])C2CCC2)sc2nc(-c3cnc(NCCO)nc3)cc(-c3ncccc3F)c12 (stereo not drawn) [Example 122] | < 2.5 |
| Cn1cc2cc(-c3cc(-c4ccnn4C)c4c(N)c([S+]([O-])C5CCC5)sc4n3)cnc2n1 (stereo not drawn) [Example 333] | < 2.5 |
| Nc1c([S+]([O-])C2CCC2)sc2nc(-c3cnn(CCO)c3)cc(-c3ccccc3)c12 (stereo not drawn) [Example 272] | < 2.5 |
| Cn1ccc(-c2cc(-c3cnc(N)nc3)nc3sc([S+]([O-])C4CCC4)c(N)c23)n1 (stereo not drawn) [Example 338] | < 2.5 |
| COCCC[S+]([O-])c1sc2nc(-c3cnc4c(cnn4C)c3)cc(C3CC3)c2c1N (stereo not drawn) [Example 172] | 2.5 to 10 |
| COCC[S@+]([O-])c1sc2nc(-c3cnc4c(c3)CNC4=O)cc(-c3ccccc3)c2c1N [Example 243] | ≥ 10 |
| COCC[S+]([O-])c1sc2nc(-c3cnc4c(c3)CNC4=O)cc(-c3ccccc3)c2c1N (stereo not drawn) [Example 241] | < 2.5 |
| Cn1ccc(-c2cc(-c3cccnc3)c3c(N)c([S+]([O-])C4CCC4)sc3n2)cc1=O (stereo not drawn) [Example 90] | 2.5 to 10 |
| CS(=O)(=O)Nc1ncc(-c2cc(-c3ccccn3)c3c(N)c([S+]([O-])C4CCC4)sc3n2)cn1 (stereo not drawn) [Example 108] | < 2.5 |
| CN(CCO)c1ncc(-c2cc(-c3ccccc3)c3c(N)c([S@+]([O-])C4CCC4)sc3n2)cn1 [Example 179] | < 2.5 |
| COCC[S@@+]([O-])c1sc2nc(-c3cnc4nncn4c3)cc(-c3ccccc3)c2c1N [Example 359] | < 2.5 |
| COCC[S@+]([O-])c1sc2nc(-c3cnc4nncn4c3)cc(-c3ccccc3)c2c1N [Example 360] | ≥ 10 |
| Nc1c([S@@+]([O-])C2CCC2)sc2nc(-c3cnc4ncnn4c3)cc(-c3ccccc3)c12 [Example 403] | ≥ 10 |
| Nc1c([S+]([O-])C2CCC2)sc2nc(-c3cnc(NCC(CO)CO)nc3)cc(-c3ccccc3)c12 (stereo not drawn) [Example 193] | < 2.5 |
| COCC[S@@+]([O-])c1sc2nc(-c3cnc4nn(C)nc4c3)cc(-c3ccnn3C)c2c1N [Example 381] | < 2.5 |
| NCCOCCNc1ncc(-c2cc(-c3ccccc3)c3c(N)c([S+]([O-])C4CCC4)sc3n2)cn1 (stereo not drawn) [Example 156] | < 2.5 |
| Nc1c([S+]([O-])C2CCC2)sc2nc(-c3cncnc3)cc(-c3ccc(C4COC4)cc3)c12 (stereo not drawn) [Example 114] | < 2.5 |

The next lines start with the values.

| IC50 [nM] | SMILES |
| --- | --- |
| < 2.5 | Nc1c([S+]([O-])C2CCC2)sc2nc(-c3cncnc3)cc(-c3ccon3)c12 (stereo not drawn) [Example 308] |
| 2.5 to 10 | COCCC[S+]([O-])c1sc2nc(-c3cnc(N4CCOCC4)nc3)cc(C(F)(F)F)c2c1N (stereo not drawn) [Example 425] |
| 2.5 to 10 | COCCC[S+]([O-])c1sc2nc(-c3cncnc3)cc(-c3ccnnc3)c2c1N (stereo not drawn) [Example 240] |
| < 2.5 | COCC[S@@+]([O-])c1sc2nc(-c3cncnc3)cc(C(F)(F)F)c2c1N [Example 198] |
| ≥ 10 | COCCC[S@@+]([O-])c1sc2nc(-c3cncnc3)cc(-c3cnccn3)c2c1N [Example 234] |
| < 2.5 | COCC[S+]([O-])c1sc2nc(-c3cnc(N)nc3)cc(-c3ccccc3)c2c1N (stereo not drawn) [Example 73] |
| < 2.5 | COCCC[S+]([O-])c1sc2nc(-c3cncnc3)cc(C3CCC3)c2c1N (stereo not drawn) [Example 254] |
| < 2.5 | COCC[S@@+]([O-])c1sc2nc(-c3cnc(N)nc3)cc(C(F)(F)F)c2c1N [Example 202] |
| < 2.5 | COCC[S+]([O-])c1sc2nc(-c3cncnc3)cc(-c3ccnc(C)c3)c2c1N (stereo not drawn) [Example 127] |
| < 2.5 | Nc1c([S+]([O-])C2CCC2)sc2nc(-c3cncnc3)cc(C3CCC3)c12 (stereo not drawn) [Example 255] |
| < 2.5 | COCC[S+]([O-])c1sc2nc(-c3cnc4ncnn4c3)cc(C3CCC3)c2c1N (stereo not drawn) [Example 400] |
| < 2.5 | COCCC[S@@+]([O-])c1sc2nc(-c3cnc(N)nc3)cc(C(F)(F)F)c2c1N [Example 203] |
| < 2.5 | COCC[S+]([O-])c1sc2nc(-c3cccnc3)cc(C(F)(F)F)c2c1N (stereo not drawn) [Example 57] |
| < 2.5 | COCCC[S+]([O-])c1sc2nc(-c3cnc(N)nc3)cc(C(F)(F)F)c2c1N (stereo not drawn) [Example 133] |
| < 2.5 | COCC[S+]([O-])c1sc2nc(-c3cncnc3)cc(C3CC3)c2c1N (stereo not drawn) [Example 109] |
| < 2.5 | COCC[S+]([O-])c1sc2nc(-c3cnc4nn(C)cc4c3)cc(C3CC3)c2c1N (stereo not drawn) [Example 176] |
| < 2.5 | COCCC[S@@+]([O-])c1sc2nc(-c3cncnc3)cc(C3CC3)c2c1N [Example 153] |
| < 2.5 | COCC[S+]([O-])c1sc2nc(-c3ccnnc3)cc(-c3ccccc3)c2c1N (stereo not drawn) [Example 210] |
| ≥ 10 | COCCC[S@+]([O-])c1sc2nc(-c3cccnc3)cc(C(F)(F)F)c2c1N [Example 79] |
| < 2.5 | COCC[S@@+]([O-])c1sc2nc(-c3cnc(NCCO)nc3)cc(C3CCC3)c2c1N [Example 349] |
| < 2.5 | COCC[S+]([O-])c1sc2nc(-c3cncnc3)cc(-c3ccccc3)c2c1N (stereo not drawn) [Example 72] |
| < 2.5 | COCCC[S+]([O-])c1sc2nc(-c3cncnc3)cc(-c3ccncn3)c2c1N (stereo not drawn) [Example 237] |
| < 2.5 | Nc1c([S+]([O-])C2CCC2)sc2nc(-c3cncnc3)cc(-c3ccno3)c12 (stereo not drawn) [Example 311] |
